# Like-named read-outs stand apart in the source and are kept apart here.
# Legend:
# Aliivibrio fischeri = assay: Microtox acute toxicity test; type: cell-based; settings: tested at 1, 10 and 100 µM
# From the text: All studied compounds were subjected to a Microtox acute toxicity test. The test is based on bioluminescent Aliivibrio fischeri bacteria, which are very sensitive to the presence of toxic substances. Changes in the toxicity of the environment surrounding the bacterium influence its respiratory processes and translate into the emitted bioluminescence intensity. Therefore, in contact with a toxic substance at a specific concentration, a linear decrease in luminescence is observed. Dimethylsulfoxide was used as a solubilizer of studied compounds in amounts not exceeding 1% v/v. To determine the effect of the solvent alone, 1% DMSO solution in water was also tested.
# The acute toxicity of the tested curcumionoids was investigated on a Modern Water Microtox Model 500 apparatus equipped with Modern Water MicrotoxOmni 4.2 software, according to the 81.9% screening test procedure provided by the manufacturer (Modern Water, London, UK). All the reagents and solutions (Microtox Acute Reagent, Microtox Diluent, and Microtox Osmotic Adjusting Solution) were purchased from Tigret (Warsaw, Poland). Solutions of the tested compounds were prepared using DMSO and deionized water. […] Each compound was tested at three final concentrations (1 µM, 10 µM, and 100 µM) and at two time points: 5 min and 15 min. The change in the bacterial bioluminescence was monitored after the addition of the sample solution and compared to the negative control.
# S. aureus = settings: cited from earlier work
# [1] = cited from earlier work
# [2] = set-up: method as in doi:10.1016/j.synthmet.2008.06.007; settings: TTF column, cited from earlier work
# P. aeruginosa = settings: 50 µg/mL; 670 nm; 97.65 J/cm^2; 5 min; cited from earlier work
smiles,measurement,setting,value
"COc1cc(C=CC2=CC(C=Cc3ccc(O)c(OC)c3)=[O+][B-](F)(F)O2)ccc1O [curcumin–BF2 complex, reference compound]",acute toxicity / ecotoxicity verdict,Aliivibrio fischeri,toxic at every concentration tested
O=C([O-])c1c(Cl)c(Cl)c(Cl)c(Cl)c1-c1c2cc(I)c(=O)c(I)c-2oc2c(I)c([O-])c(I)cc12.[Na+].[Na+] [Rose bengal],Efficiency (log reduction),"S. aureus; 0.31 µg/mL, 515 nm, 5.8 mW/cm^2, 37 J/cm^3",6 log
same,Efficiency (log reduction),"S. aureus; 0.62 µg/mL, 515 nm, 5.8 mW/cm^2, 18 J/cm^2",6 log
"[Zn+2].c1ccc2c(c1)-c1nc-2nc2[n-]c(nc3nc([n-]c4nc(n1)-c1ccccc1-4)-c1ccccc1-3)c1ccccc21 [ZnPc, zinc(II) phthalocyanine]",10^−5 Φp (photodecomposition quantum yield),[1]; DMF,1.02 [38] 10^−5
same,ΦP (photodecomposition quantum yield),[1]; DMF,10.2 × 10^−6
same,10^−5 Φp (photodecomposition quantum yield),[1]; DMSO,0.35 [39] 10^−5
same,ΦP (photodecomposition quantum yield),[1]; DMSO,3.5 × 10^−6
same,singlet oxygen quantum yield,[2]; DMF,0.56 [39]
same,singlet oxygen quantum yield,[2]; DMSO,0.67 [39]
Cc1cc2nc3ccc(N(C)C)cc3[s+]c2cc1N.[Cl-] [Toluidine blue],Efficiency (log reduction),"S. aureus; 50 µg/mL, 670 nm, 97.65 J/cm^2, 5 min",2.66 log
same,Efficiency (log reduction),P. aeruginosa,2.36 log

# Source: paper PMC11478334, “Quaternized Curcumin Derivative—Synthesis, Physicochemical Characteristics, and Photocytotoxicity, Including Antibacterial Activity after Irradiation with Blue Light” (Molecules, 2024)
